According to patent US8729228B2, “Method of producing a modified (poly) peptide” (University of Geneva, priority 2005, dated 2014):
Residues, ends and D or L forms follow the SMILES beside them. *: point of attachment. OBn = c1ccc(CO*)cc1

What was measured:
[1] = test system: α-smooth muscle-actin (α-SMA); assay: α-SMA stress fibre assay in α-SMA-EGFP transfected REF-52 cells (confocal microscopy); format: cell-based, Rat; details: for penetration into the cell, monitored by detection of the expected biological activity: extent measured by comparison with the biological activity of standards
Method: FIG. 15: (a) Constructs designed to deliver the Ac-EEED peptide into cells through a semi-permanent carboxy esterification strategy. (b) Rat embryonic fibroblasts (REF-52 cells) transfected with the α-SMA-EGFP construct (Clement et al., J Cell Sci. 118, 1395-1404 (2005)) were trypsinized, plated on coverslips for 1 days in DMEM/2% FCS and treated with SMA-Peptide [Ac-E(OBzl)-E(OBzl)-E(OBzl)-D(OBzl)-K(Ac)-CONH2] (5 μg/ml) for 45 min in DMEM without FCS (37 C, incubator). Cells were the rinsed in DMEM, fixed with 1% PFA, and mounted for confocal microscopy (LSM510, Carl Zeiss) observation. α-SMA-EGFP transfected cells were either untreated (control; left), or treated for 45 minutes with SMA-Peptide [Ac-E(OBzl)-E(OBzl)-E(OBzl)-D(OBzl)-K(Ac)-CONH2] (right).
This example relates to delivery of the peptide using a semi-permanent carboxy esterification strategy of a synthetic peptide incorporating a C-terminal lysine residue, whose carboxy terminus is amidated and whose epsilon amino group is either acetylated or used as a handle to attach a tracer (fluorochrome, biotin, etc, FIG. 15(a)). Four constructs have been tested, varying the lipophilicity of the protecting ester moiety.

[2] = target: α-smooth muscle-actin (α-SMA) (Homo sapiens, UniProt P62736); details: microinjection (Chaponnier et al. 1995) and fusion to a PTD (Hinz et al. 2002); cited from earlier work

Q: Which α-SMA positive-stress fibers ([1]; REF-52 cells transfected with α-SMA-EGFP, 5 μg/ml for 45 min in DMEM without FCS, 37 C) does the source give for CC(=O)NCCCC[C@H](NC(=O)[C@H](CC(=O)OCc1ccccc1)NC(=O)[C@H](CCC(=O)OCc1ccccc1)NC(=O)[C@H](CCC(=O)OCc1ccccc1)NC(=O)[C@H](CCC(=O)OCc1ccccc1)NC(C)=O)C(N)=O [SMA-Peptide, Ac-E(OBzl)-E(OBzl)-E(OBzl)-D(OBzl)-K(Ac)-CONH2] (Ac-E(OBn)E(OBn)E(OBn)D(OBn)K(Ac)-NH2) here?
A: provokes α-SMA positive-stress fiber disappearance

Q: What about the “penetration into the cell, monitored by detection of the expected biological activity” value ([1]; listed as template) of the same compound?
A: incomplete

Q: What about the “penetration into the cell, monitored by detection of the expected biological activity” value ([1]; listed as template with the carboxylates esterified with benzyl groups) of the same compound?
A: showed penetration into the cell

Q: Which “blocking polymerisation of α-smooth muscle-actin (α-SMA)” value [2] does the source give for Ac-EEED here?
A: capable of blocking polymerisation of α-smooth muscle-actin (α-SMA)
